Experimental data taken from publication PMC8611036, “An integrated method for optimized identification of effective natural inhibitors against SARS-CoV-2 3CLpro” (Scientific Reports, 2021).
Non-standard residues stand in square brackets, D forms with d. Residues, ends and D or L forms follow the SMILES beside them. 2Thi = N[C@@H](Cc1cccs1)C(=O)O; Cha = N[C@@H](CC1CCCCC1)C(=O)O

Tested on: SARS-CoV 3CLpro
Format: biochemical
Details: activity class by pIC50 threshold 6

Row | Structure (SMILES) | Inact.(<6)/Act.(>=6)
1 | O=[N+]([O-])c1ccccc1SSc1ncccn1 [CMP270] | Act. (Act.(>=6))
2 | Cc1nc(C)c(C(=O)C2=C(O)C(=O)N(CCCN3CCOCC3)C2c2cccc([N+](=O)[O-])c2)s1 (stereo not shown) [CMP289] | Inact. (Inact.(<6))
3 | O=[N+]([O-])c1ccccc1SSc1nccs1 [CMP266] | Inact. (Inact.(<6))
4 | CC1CCN(S(=O)(=O)c2ccc3c(c2)C(=O)C(=O)N3Cc2ccccc2)CC1 [CMP248] | Inact. (Inact.(<6))
5 | CCC(=O)Nc1ccc(N(Cc2ccsc2)C(=O)Cn2nnc3ccccc32)cc1 [CMP220] | Inact. (Inact.(<6))
6 | COC(=O)c1ccccc1SSc1nc(C(=O)OC)c(C)[nH]1 [CMP265] | Inact. (Inact.(<6))
7 | COc1ncccc1-c1ccc(N(Cc2ccsc2)C(=O)Cn2nnc3ccccc32)cc1 [CMP225] | Act. (Act.(>=6))
8 | COC(=O)c1nc(SSc2ccccc2[N+](=O)[O-])[nH]c1C [CMP269] | Inact. (Inact.(<6))
9 | CC(C)(C)NC(=O)C(c1cccnc1)N(C(=O)c1cnco1)c1ccc(C(C)(C)C)cc1 (stereo not shown) [CMP188] | Inact. (Inact.(<6))
10 | COc1cc(CN2CCN(S(=O)(=O)c3ccc4c(c3)C(=O)C(=O)N4)CC2)cc(OC)c1OC [CMP236] | Inact. (Inact.(<6))
11 | CC(C)(C)NC(=O)C(c1cnccn1)N(C(=O)c1ccco1)c1ccc(C(C)(C)C)cc1 (stereo not shown) [CMP204] | Inact. (Inact.(<6))
12 | CC(C)C[C@H](NC(=O)[C@@H](NC(=O)[C@H](C)NC(=O)OCc1ccccc1)C(C)C)C(=O)N[C@H](C#N)CCC(N)=O [CMP230] | Inact. (Inact.(<6))
13 | CC(=O)N[C@@H](CC(N)=O)C(=O)N[C@H](C(=O)N[C@@H](CC1CCCCC1)C(=O)N[C@H](C=O)Cc1c[nH]cn1)C(C)C [CMP217] (Ac-NV[Cha]H-aldehyde) | Inact. (Inact.(<6))
14 | O=C(Oc1cncc(Cl)c1)c1ccc(-c2ccc([N+](=O)[O-])cc2)o1 [CMP282] | Act. (Act.(>=6))
15 | O=C1Nc2ccc(S(=O)(=O)N3CCN(CCc4ccccc4)CC3)cc2C1=O [CMP237] | Inact. (Inact.(<6))
16 | O=C(Oc1cncc(Cl)c1)c1cccnc1 [CMP172] | Act. (Act.(>=6))
17 | CC(C)COC(=O)Nc1ccc(N(Cc2ccsc2)C(=O)Cn2nnc3ccccc32)cc1 [CMP199] | Inact. (Inact.(<6))
18 | Cc1cc(C)nc(SSc2ccccc2[N+](=O)[O-])n1 [CMP274] | Act. (Act.(>=6))
19 | O=C[C@H](Cc1cnc[nH]1)NC[C@@H]1C[C@H]2CCCC[C@@H]2CN1C(=O)c1ccc(-c2ccccc2)cc1 [CMP259] | Inact. (Inact.(<6))
20 | O=C[C@H](Cc1c[nH]cn1)NC[C@@H]1C[C@H]2CCCC[C@@H]2CN1C(=O)c1ccccc1-c1ccccc1 [CMP261] | Inact. (Inact.(<6))
21 | Cc1ccc(C(=O)N/C(=C\c2ccc(-c3cccc([N+](=O)[O-])c3)o2)C(=O)NCCCN(C)C)cc1 [CMP283] | Inact. (Inact.(<6))
22 | CC(=O)Oc1cc2c(cc1C(C)C)CC[C@H]1[C@](C)(CO)CCC[C@]21C [CMP207] | Inact. (Inact.(<6))
23 | COc1ncc(-c2ccc(N(Cc3ccsc3)C(=O)Cn3nnc4ccccc43)cc2)cn1 [CMP222] | Inact. (Inact.(<6))
24 | COc1cccc(C(=O)Oc2cncc(Cl)c2)c1 [CMP171] | Act. (Act.(>=6))

Row | Structure (SMILES) | Inact.(<6)/Act.(>=6)
25 | COC(=O)c1nc(SSc2ccc(Cl)cc2)[nH]c1C [CMP268] | Inact. (Inact.(<6))
26 | O=C(Cn1nnc2ccccc21)N(Cc1ccsc1)c1ccc(-c2cccnc2)cc1 [CMP224] | Act. (Act.(>=6))
27 | Cc1coc2c1C(=O)C(=O)c1c-2ccc2c(C)cccc12 [CMP127] | Inact. (Inact.(<6))
28 | O=C(Oc1cncc(Cl)c1)c1ccncc1 [CMP167] | Act. (Act.(>=6))
29 | O=C[C@H](Cc1c[nH]cn1)NC[C@@H]1C[C@H]2CCCC[C@@H]2CN1C(=O)c1cccc(-c2ccccc2)c1 [CMP260] | Inact. (Inact.(<6))
30 | CCC(C)(C)NC(=O)[C@@H](c1ccn(C)c1)N(C(=O)Cn1nnc2ccccc21)c1ccc(NC(C)=O)cc1 [CMP254] | Inact. (Inact.(<6))
31 | Cn1cnc(C(=O)N(c2ccc(C(C)(C)C)cc2)C(C(=O)NC(C)(C)C)c2cccnc2)c1 (stereo not shown) [CMP206] | Inact. (Inact.(<6))
32 | CN1CCN(S(=O)(=O)c2ccc3c(c2)C(=O)C(=O)N3Cc2ccccc2)CC1 [CMP242] | Inact. (Inact.(<6))
33 | O=C(Oc1cncc(Cl)c1)c1ccc(-c2cccc([N+](=O)[O-])c2)o1 [CMP278] | Act. (Act.(>=6))
34 | O=C[C@H](Cc1c[nH]cn1)NC[C@@H]1C[C@H]2CCCC[C@@H]2CN1C(=O)c1ccc(F)cc1 [CMP258] | Inact. (Inact.(<6))
35 | O=C[C@H](Cc1c[nH]cn1)NC[C@H]1C[C@@H]2CCCC[C@H]2CN1C(=O)c1ccc(Br)cc1 [CMP263] | Inact. (Inact.(<6))
36 | Cc1cc(S(=O)(=O)c2c([N+](=O)[O-])cc(C(F)(F)F)cc2[N+](=O)[O-])c(Cl)cc1Cl [CMP288] | Act. (Act.(>=6))
37 | O=C[C@H](Cc1cnc[nH]1)NC[C@H]1C[C@@H]2CCCC[C@H]2CN1C(=O)c1ccc(-c2ccccc2)cc1 [CMP257] | Inact. (Inact.(<6))
38 | CN1CCN(S(=O)(=O)c2ccc3c(c2)C(=O)C(=O)N3Cc2ccc3ccccc3c2)CC1 [CMP243] | Inact. (Inact.(<6))
39 | O=C(Oc1cncc(Br)c1)c1ccco1 [CMP276] | Act. (Act.(>=6))
40 | C=C1CC[C@H]2[C@](C)(CO)CCC[C@]2(C)[C@H]1CC/C(C)=C\CO [CMP209] | Inact. (Inact.(<6))
41 | O=C(Oc1cncc(Cl)c1)c1ccc(-c2ccccc2[N+](=O)[O-])o1 [CMP281] | Act. (Act.(>=6))
42 | C=C(CCSc1ccccc1NC(=O)/C=C/c1ccccc1)OC [CMP107] | Inact. (Inact.(<6))
43 | CC(C)c1cc2c(cc1O)[C@@]1(C)CCC[C@@](C)(C=O)[C@@H]1CC2 [CMP208] | Inact. (Inact.(<6))
44 | O=C[C@H](Cc1cnc[nH]1)NC[C@@H]1C[C@H]2CCCC[C@@H]2CN1C(=O)c1ccc(Br)cc1 [CMP256] | Inact. (Inact.(<6))
45 | O=C1Nc2ccc(S(=O)(=O)N3CCN(c4ccccn4)CC3)cc2C1=O [CMP239] | Inact. (Inact.(<6))
46 | CC(=O)N[C@@H](CO)C(=O)N[C@@H](C)C(=O)N[C@H](C(=O)N[C@@H](CC(C)C)C(=O)N[C@H](C=O)Cc1cccs1)C(C)C [CMP216] (Ac-SAVL[2Thi]-aldehyde) | Inact. (Inact.(<6))
47 | CC(C)(C)NC(=O)C(c1cccnc1)N(C(=O)C1=NC=NC1)c1ccc(C(C)(C)C)cc1 (stereo not shown) [CMP234] | Inact. (Inact.(<6))
48 | O=C(Oc1cncc(Cl)c1)c1ccc(Cl)cc1 [CMP165] | Act. (Act.(>=6))

Row | Structure (SMILES) | Inact.(<6)/Act.(>=6)
49 | C=C(Cc1cccc(C)c1)C1=CC=C(c2ccc(C)cc2)C1 [CMP233] | Inact. (Inact.(<6))
50 | CC(C)(C)NC(=O)C(c1cccnc1)N(C(=O)c1ccc(Cl)o1)c1ccc(C(C)(C)C)cc1 (stereo not shown) [CMP201] | Inact. (Inact.(<6))
51 | CC(=O)N[C@@H](CO)C(=O)N[C@H](C(=O)N[C@@H](CC1CCCCC1)C(=O)N[C@H](C=O)Cc1c[nH]cn1)C(C)C [CMP218] (Ac-SV[Cha]H-aldehyde) | Act. (Act.(>=6))
52 | CN1CCN(S(=O)(=O)c2ccc3c(c2)C(=O)C(=O)N3C)CC1 [CMP241] | Inact. (Inact.(<6))
53 | O=C(Sc1nnc(C(F)(F)F)[nH]1)c1ccc(C#Cc2ccccc2)o1 [CMP143] | Inact. (Inact.(<6))
54 | CC(C)C[C@H](NC(=O)[C@@H](NC(=O)[C@H](C)NC(=O)[C@H](CO)NC(=O)[C@@H](NC(=O)OCc1ccccc1)[C@@H](C)O)C(C)C)C(=O)N[C@H](C#N)CCC(N)=O [CMP231] (HELM PEPTIDE1{[O=C(OCc1ccccc1)[*:2]].T.S.A.V.L.[N#C[C@H](CCC(N)=O)N[*:1]]}$$$$V2.0) | Inact. (Inact.(<6))
55 | CN1CCN(S(=O)(=O)c2ccc3c(c2)C(=O)C(=O)N3)CC1 [CMP227] | Inact. (Inact.(<6))
56 | COc1ccc(-c2cc(=O)c3c(O)cc(O)cc3o2)cc1-c1c(O)cc(O)c2c(=O)cc(-c3ccc(O)cc3)oc12 [CMP157] | Inact. (Inact.(<6))
57 | O=C(Cn1nnc2ccccc21)N(Cc1ccsc1)c1ccc(NCc2ccccc2)cc1 [CMP221] | Inact. (Inact.(<6))
58 | CCN(CC)c1ccc(C(=O)On2nnc3ccccc32)cc1 [CMP164] | Inact. (Inact.(<6))
59 | COc1cc(/C=C/C(=O)/C=C(O)/C=C/c2ccc(O)c(OC)c2)ccc1O [CMP156] | Inact. (Inact.(<6))
60 | Cc1nnc(SSc2ccccc2[N+](=O)[O-])o1 [CMP273] | Inact. (Inact.(<6))
61 | CC(C)(C)NC(=O)C(c1ccncc1)N(C(=O)c1ccco1)c1ccc(C(C)(C)C)cc1 (stereo not shown) [CMP205] | Inact. (Inact.(<6))
62 | CC(C)C(=O)Nc1ccc(N(Cc2ccsc2)C(=O)Cn2nnc3ccccc32)cc1 [CMP198] | Inact. (Inact.(<6))
63 | CC(=O)Nc1ccc(N(C(=O)Cn2cc(-c3ccccc3)nn2)C(C(=O)NC(C)(C)C)c2ccsc2)cc1 (stereo not shown) [CMP210] | Inact. (Inact.(<6))
64 | Cc1cc(C(=O)N[C@@H](C)C(=O)N[C@H](C(=O)N[C@@H](CC(C)C)C(=O)N[C@H](C#N)CCC(N)=O)C(C)C)no1 [CMP228] | Inact. (Inact.(<6))
65 | CC1CC(C)CN(S(=O)(=O)c2ccc3c(c2)C(=O)C(=O)N3C)C1 (stereo not shown) [CMP250] | Inact. (Inact.(<6))
66 | CC1=CC[C@]2(C)CC[C@]3(C)C4=CC=C5C(=CC(=O)C(O)=C5C)[C@]4(C)CC[C@@]3(C)[C@@H]2C1 [CMP200] | Inact. (Inact.(<6))
67 | CC(=O)Nc1cnc(SSc2ccc(Br)cc2)s1 [CMP23, reference compound] | Inact. (Inact.(<6))
68 | Cc1ccc(C(=O)N/C(=C\c2ccc(-c3ccccc3[N+](=O)[O-])o2)C(=O)NCCCN(C)C)cc1 [CMP284] | Inact. (Inact.(<6))
69 | O=C(Oc1cncc(Cl)c1)c1ccc(-c2ccc(Cl)cc2[N+](=O)[O-])o1 [CMP280] | Act. (Act.(>=6))
70 | O=C(Oc1cncc(Cl)c1)c1ccccc1[N+](=O)[O-] [CMP279] | Act. (Act.(>=6))
